Reference: PubChem BioAssay (NCI)
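Protocol summary: plate cells (96-well), add compound at 5 concentrations, incubate 48 h, interpolate endpoints linearly. TGI is the concentration that stops growth completely.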

Legend:
Test in all cases: growth of human tumour cells (NCI), 48 h
COLO 205 colon = tested on: COLO 205 colon
SF-295 CNS = tested on: SF-295 CNS
HCT-116 colon = tested on: HCT-116 colon
HCT-15 colon = tested on: HCT-15 colon
HCC-2998 colon = tested on: HCC-2998 colon
OVCAR-5 ovarian = tested on: OVCAR-5 ovarian
LOX IMVI melanoma = tested on: LOX IMVI melanoma
NCI-H522 lung = tested on: NCI-H522 lung
UO-31 renal = tested on: UO-31 renal
CAKI-1 renal = tested on: CAKI-1 renal
ACHN renal = tested on: ACHN renal
SN12C renal = tested on: SN12C renal
MDA-MB-435 = tested on: MDA-MB-435
SR leukemia = tested on: SR leukemia
HL-60(TB) leukemia = tested on: HL-60(TB) leukemia
U251 CNS = tested on: U251 CNS
DMS 114 small cell lung = tested on: DMS 114 small cell lung
A549 NSCLC = tested on: A549 NSCLC
MCF7 breast = tested on: MCF7 breast
RXF-631 renal = tested on: RXF-631 renal
LXFL 529 NSCLC = tested on: LXFL 529 NSCLC
T-47D breast = tested on: T-47D breast
UACC-257 melanoma = tested on: UACC-257 melanoma
SK-OV-3 ovarian = tested on: SK-OV-3 ovarian
NCI-H226 lung = tested on: NCI-H226 lung
HT29 colon = tested on: HT29 colon
SK-MEL-2 melanoma = tested on: SK-MEL-2 melanoma
CCRF-CEM leukemia = tested on: CCRF-CEM leukemia
SF-539 CNS = tested on: SF-539 CNS
HS 578T breast = tested on: HS 578T breast
MDA-MB-231 breast = tested on: MDA-MB-231 breast
NCI/ADR-RES ovarian = tested on: NCI/ADR-RES ovarian
M14 melanoma = tested on: M14 melanoma
UACC-62 melanoma = tested on: UACC-62 melanoma
RPMI-8226 leukemia = tested on: RPMI-8226 leukemia
TK-10 renal = tested on: TK-10 renal
OVCAR-8 ovarian = tested on: OVCAR-8 ovarian
NCI-H460 lung = tested on: NCI-H460 lung
NCI-H23 lung = tested on: NCI-H23 lung
MALME-3M melanoma = tested on: MALME-3M melanoma
786-0 renal = tested on: 786-0 renal
KM12 colon = tested on: KM12 colon
HOP-62 NSCLC = tested on: HOP-62 NSCLC
BT-549 breast = tested on: BT-549 breast
MOLT-4 leukemia = tested on: MOLT-4 leukemia
HOP-92 NSCLC = tested on: HOP-92 NSCLC
SNB-75 CNS = tested on: SNB-75 CNS
SF-268 CNS = tested on: SF-268 CNS
EKVX NSCLC = tested on: EKVX NSCLC
SNB-19 CNS = tested on: SNB-19 CNS
A498 renal = tested on: A498 renal
RXF 393 renal = tested on: RXF 393 renal
SK-MEL-28 melanoma = tested on: SK-MEL-28 melanoma
KM20L2 colon = tested on: KM20L2 colon
K-562 leukemia = tested on: K-562 leukemia
OVCAR-4 ovarian = tested on: OVCAR-4 ovarian
MDA-N = tested on: MDA-N
IGROV1 ovarian = tested on: IGROV1 ovarian
DU-145 prostate = tested on: DU-145 prostate
SW-620 colon = tested on: SW-620 colon
SK-MEL-5 melanoma = tested on: SK-MEL-5 melanoma
DLD-1 colon = tested on: DLD-1 colon
PC-3 prostate = tested on: PC-3 prostate
OVCAR-3 ovarian = tested on: OVCAR-3 ovarian
XF 498 CNS = tested on: XF 498 CNS
SNB-78 CNS = tested on: SNB-78 CNS
DMS 273 small cell lung = tested on: DMS 273 small cell lung
HOP-18 NSCLC = tested on: HOP-18 NSCLC

CC1c2ccccc2Cn2cc3c(c21)C(=O)c1cccc(OP(=O)(O)OCc2ccccc2)c1C3=O (stereo unspecified)
TGI (COLO 205 colon): > 100 µM
TGI (SF-295 CNS): > 100 µM
TGI (HCT-116 colon): > 100 µM
TGI (HCT-15 colon): > 100 µM
TGI (HCC-2998 colon): > 100 µM
TGI (OVCAR-5 ovarian): > 100 µM
TGI (LOX IMVI melanoma): > 100 µM
TGI (NCI-H522 lung): > 100 µM
TGI (UO-31 renal): > 100 µM
TGI (CAKI-1 renal): > 100 µM
TGI (ACHN renal): > 100 µM
TGI (SN12C renal): > 100 µM
TGI (MDA-MB-435): > 100 µM
TGI (SR leukemia): > 100 µM
TGI (HL-60(TB) leukemia): > 77.3 µM
TGI (U251 CNS): > 100 µM
TGI (DMS 114 small cell lung): > 100 µM
TGI (A549 NSCLC): > 100 µM
TGI (MCF7 breast): > 100 µM
TGI (RXF-631 renal): > 100 µM
TGI (LXFL 529 NSCLC): > 100 µM
TGI (T-47D breast): > 100 µM
TGI (UACC-257 melanoma): > 100 µM
TGI (SK-OV-3 ovarian): > 100 µM
TGI (NCI-H226 lung): > 100 µM
TGI (HT29 colon): > 100 µM
TGI (SK-MEL-2 melanoma): > 100 µM
TGI (CCRF-CEM leukemia): > 100 µM
TGI (SF-539 CNS): > 100 µM
TGI (HS 578T breast): > 100 µM
TGI (MDA-MB-231 breast): > 100 µM
TGI (NCI/ADR-RES ovarian): > 100 µM
TGI (M14 melanoma): > 100 µM
TGI (UACC-62 melanoma): > 100 µM
TGI (RPMI-8226 leukemia): > 100 µM
TGI (TK-10 renal): > 100 µM
TGI (OVCAR-8 ovarian): > 100 µM
TGI (NCI-H460 lung): > 100 µM
TGI (NCI-H23 lung): > 100 µM
TGI (MALME-3M melanoma): > 100 µM
TGI (786-0 renal): > 100 µM
TGI (KM12 colon): > 100 µM
TGI (HOP-62 NSCLC): > 100 µM
TGI (BT-549 breast): > 100 µM
TGI (MOLT-4 leukemia): > 100 µM
TGI (HOP-92 NSCLC): > 100 µM
TGI (SNB-75 CNS): > 100 µM
TGI (SF-268 CNS): > 100 µM
TGI (EKVX NSCLC): > 100 µM
TGI (SNB-19 CNS): > 100 µM
TGI (A498 renal): > 100 µM
TGI (RXF 393 renal): > 100 µM
TGI (SK-MEL-28 melanoma): > 100 µM
TGI (KM20L2 colon): > 100 µM
TGI (K-562 leukemia): > 100 µM
TGI (OVCAR-4 ovarian): > 100 µM
TGI (MDA-N): > 100 µM
TGI (IGROV1 ovarian): > 100 µM
TGI (DU-145 prostate): > 100 µM
TGI (SW-620 colon): > 100 µM
TGI (SK-MEL-5 melanoma): > 100 µM
TGI (DLD-1 colon): > 100 µM
TGI (PC-3 prostate): > 100 µM
TGI (OVCAR-3 ovarian): > 100 µM
TGI (XF 498 CNS): > 100 µM

Cc1ccc(N=Nc2c(-c3ccccc3)nn(C(=O)CC(=O)Nc3ccc(Cl)cc3)c2-c2ccccc2)cc1
TGI (COLO 205 colon): > 100 µM
TGI (SF-295 CNS): > 100 µM
TGI (SNB-78 CNS): > 100 µM
TGI (HCT-116 colon): > 100 µM
TGI (HCT-15 colon): > 100 µM
TGI (HCC-2998 colon): > 100 µM
TGI (OVCAR-5 ovarian): > 100 µM
TGI (LOX IMVI melanoma): > 100 µM
TGI (NCI-H522 lung): > 100 µM
TGI (UO-31 renal): 86.3 µM
TGI (CAKI-1 renal): > 100 µM
TGI (ACHN renal): > 100 µM
TGI (SN12C renal): > 100 µM
TGI (SR leukemia): 57.3 µM
TGI (HL-60(TB) leukemia): > 100 µM
TGI (U251 CNS): > 100 µM
TGI (DMS 114 small cell lung): > 100 µM
TGI (A549 NSCLC): > 100 µM
TGI (RXF-631 renal): > 100 µM
TGI (LXFL 529 NSCLC): 94.5 µM
TGI (UACC-257 melanoma): > 100 µM
TGI (SK-OV-3 ovarian): > 100 µM
TGI (NCI-H226 lung): > 100 µM
TGI (HT29 colon): > 100 µM
TGI (SK-MEL-2 melanoma): > 100 µM
TGI (CCRF-CEM leukemia): 72.5 µM
TGI (SF-539 CNS): > 100 µM
TGI (M14 melanoma): > 100 µM
TGI (UACC-62 melanoma): > 100 µM
TGI (RPMI-8226 leukemia): 86.7 µM
TGI (OVCAR-8 ovarian): > 100 µM
TGI (NCI-H460 lung): > 100 µM
TGI (NCI-H23 lung): > 100 µM
TGI (MALME-3M melanoma): > 100 µM
TGI (786-0 renal): > 100 µM
TGI (KM12 colon): > 100 µM
TGI (DMS 273 small cell lung): > 100 µM
TGI (HOP-62 NSCLC): > 100 µM
TGI (MOLT-4 leukemia): 79.1 µM
TGI (HOP-92 NSCLC): 66.9 µM
TGI (SNB-75 CNS): 73.5 µM
TGI (SF-268 CNS): > 100 µM
TGI (HOP-18 NSCLC): > 100 µM
TGI (EKVX NSCLC): 18.3 µM
TGI (SNB-19 CNS): > 100 µM
TGI (A498 renal): 94.9 µM
TGI (RXF 393 renal): 99.6 µM
TGI (SK-MEL-28 melanoma): > 100 µM
TGI (KM20L2 colon): > 100 µM
TGI (K-562 leukemia): > 100 µM
TGI (OVCAR-4 ovarian): > 100 µM
TGI (IGROV1 ovarian): > 100 µM
TGI (SW-620 colon): > 100 µM
TGI (SK-MEL-5 melanoma): > 100 µM
TGI (DLD-1 colon): > 100 µM
TGI (OVCAR-3 ovarian): 99.6 µM
